One block for each compound: values may come before it.
How the values were obtained:
[1] = Protein binding in rat brain by equilibrium dialysis method; type: ADME, tissue-based; details: read-out: PB (converted)
[2] = Drug uptake in rat lung at 30 mg/kg, ip after 30 mins; type: ADME, organism-based; set-up: dose 30 mg/kg, route intraperitoneal; details: read-out: Drug uptake
[3] = Drug uptake in rat CSF at 30 mg/kg, ip after 30 mins; type: ADME, organism-based, Cerebrospinal fluid; set-up: dose 30 mg/kg, route intraperitoneal; details: read-out: Drug uptake
[4] = Drug uptake in rat CSF at 10 mg/kg, ip after 30 mins; type: ADME, organism-based, Cerebrospinal fluid; set-up: dose 10 mg/kg, route intraperitoneal; details: read-out: Drug uptake
[5] = target: T1, G protein-coupled receptor 88 (Homo sapiens, UniProt Q9GZN0); experiment: Agonist activity at GPR88 (unknown origin) transfected in forskolin-stimulated HEK cells assessed as inhibition of cAMP production after 30 mins by HTRF method relative to control; type: functional, cell-based, HEK293
T1 sequence (Q9GZN0 whole entry): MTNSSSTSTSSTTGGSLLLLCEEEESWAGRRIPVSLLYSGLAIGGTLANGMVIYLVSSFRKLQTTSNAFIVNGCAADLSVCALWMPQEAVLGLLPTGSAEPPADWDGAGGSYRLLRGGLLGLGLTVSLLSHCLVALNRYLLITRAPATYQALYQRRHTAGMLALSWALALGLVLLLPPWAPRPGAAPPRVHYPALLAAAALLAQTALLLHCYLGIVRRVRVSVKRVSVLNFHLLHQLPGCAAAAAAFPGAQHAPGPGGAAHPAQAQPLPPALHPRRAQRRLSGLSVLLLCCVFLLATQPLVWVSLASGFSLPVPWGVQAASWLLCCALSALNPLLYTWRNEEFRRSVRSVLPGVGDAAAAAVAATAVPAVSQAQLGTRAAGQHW

[6] = Drug uptake in rat brain at 10 mg/kg, ip after 30 mins; type: ADME, organism-based; set-up: dose 10 mg/kg, route intraperitoneal; details: read-out: Drug uptake
[7] = Plasma concentration in rat at 30 mg/kg, ip after 30 mins; type: ADME, organism-based; set-up: dose 30 mg/kg, route intraperitoneal
[8] = Clearance in mouse at 10 mg/kg, ip; type: ADME, organism-based; set-up: dose 10 mg/kg, route intraperitoneal; details: in vivo
[9] = Plasma concentration in rat at 10 mg/kg, ip after 30 mins; type: ADME, organism-based; set-up: dose 10 mg/kg, route intraperitoneal
[10] = Drug uptake in rat brain at 30 mg/kg, ip after 30 mins; type: ADME, organism-based; set-up: dose 30 mg/kg, route intraperitoneal; details: read-out: Drug uptake
[11] = Ratio of drug level in brain to plasma in mouse at 1 mg/kg, iv after 30 mins; type: ADME, organism-based; set-up: dose 1 mg/kg, route intravenous; details: brain and plasma, read-out: BPR
[12] = Plasma protein binding in rat by equilibrium dialysis method; type: ADME, cell-free; details: read-out: PPB (converted)
[13] = Half life in mouse at 1 mg/kg, iv; type: ADME, organism-based; set-up: dose 1 mg/kg, route intravenous; details: in vivo
[14] = Clearance in mouse at 1 mg/kg, iv; type: ADME, organism-based; set-up: dose 1 mg/kg, route intravenous; details: in vivo
[15] = Plasma protein binding in mouse by equilibrium dialysis method; type: ADME, cell-free; details: read-out: PPB (converted)
[16] = Volume of distribution at steady state in mouse at 1 mg/kg, iv; type: ADME, organism-based; set-up: dose 1 mg/kg, route intravenous; details: in vivo, read-out: Vdss
[17] = target: T1, G protein-coupled receptor 88; experiment: Agonist activity at GPR88 (unknown origin) transfected in forskolin-stimulated HEK cells assessed as [35S]GTPgammaS binding after 60 mins by trilux scintillation counting analysis relative to control; type: functional, cell-based, HEK293
[18] = Plasma concentration in mouse at 1 mg/kg, iv after 30 mins; type: ADME, organism-based; set-up: dose 1 mg/kg, route intravenous
[19] = Drug uptake in mouse brain at 1 mg/kg, iv after 30 mins; type: ADME, organism-based; set-up: dose 1 mg/kg, route intravenous; details: read-out: Drug uptake
[20] = Drug uptake in rat lung at 10 mg/kg, ip after 30 mins; type: ADME, organism-based; set-up: dose 10 mg/kg, route intraperitoneal; details: read-out: Drug uptake

- EC50 [5]: > 10000 nM
SMILES: CO[C@@H](C)COc1ccc([C@H](CO)NC(=O)[C@@H](C)c2ccccc2)cc1

- EC50 [5]: 500 nM
SMILES: CC(C)COc1ccc([C@H](CO)NC(=O)[C@@H](C)c2ccccc2)cc1

- EC50 [5]: 860 nM
SMILES: CCCC(C)COc1ccc([C@H](CO)NC(=O)[C@@H](NC)c2ccccc2)cc1 (mixture of isomers)

- EC50 [5]: 260 nM
SMILES: CC[C@H](C)COc1ccc([C@H](CO)NC(=O)[C@@H](C)c2ccccc2)c(C)n1

- EC50 [5]: > 10000 nM
SMILES: COCC(C)Oc1ccc([C@H](CO)NC(=O)[C@@H](C)c2ccccc2)cc1 (stereo partly drawn)

- EC50 [5]: 190 nM
SMILES: CC[C@H](C)COc1ccc([C@H](CO)NC(=O)[C@@H](C)c2ccccc2)cc1

- fraction unbound [1]: 0.23
- concentration at 0.5 h [4]: 335 nM
- concentration at 0.5 h [20]: 970 nM
- EC50 [5]: 410 nM
- concentration at 0.5 h [6]: 450 nM
- concentration at 0.5 h [9]: 1240 nM
SMILES: COc1ccc([C@H](CO)NC(=O)[C@@H](C)c2ccccc2)cc1

- EC50 [5]: 110 nM
SMILES: CCCC(C)COc1ccc([C@H](CN)NC(=O)[C@@H](C)c2ccccc2)cc1 (mixture of isomers)

- fraction unbound [1]: 0.09
- concentration at 0.5 h [4]: 1.1 nM
- concentration at 0.5 h [20]: 59500 nM
- EC50 [5]: > 10000 nM
- concentration at 0.5 h [6]: 340 nM
- CL/F [8]: 66 mL/min/kg
- concentration at 0.5 h [9]: 860 nM
SMILES: CC[C@H](C)COc1ccc([C@H](CN)NC(=O)[C@@H](C)c2ccccc2)cc1

- EC50 [5]: 190 nM
SMILES: CC[C@H](C)COc1ccc([C@H](CO)NC(=O)[C@@H](C)c2ccccc2)c(OC)c1

- EC50 [5]: 170 nM
SMILES: CC[C@H](C)COc1cc(C)c([C@H](CO)NC(=O)[C@@H](C)c2ccccc2)c(C)c1

- EC50 [5]: 160 nM
SMILES: CC[C@H](C)COc1ccc([C@H](CO)NC(=O)[C@@H](C)c2ccccc2)c(C)c1

- EC50 [5]: 460 nM
SMILES: CC[C@H](C)COc1ccc([C@H](CO)NC(=O)[C@@H](C)c2ccccc2)c(F)c1

The next lines start with the compound.

SMILES: CC[C@H](C)COc1ccc([C@H](CO)NC(=O)[C@H]2C[C@@H]2c2cccs2)cc1
- fraction unbound [1]: 0.06
- concentration at 0.5 h [2]: 11500 nM
- concentration at 0.5 h [3]: 5.7 nM
- concentration at 0.5 h [4]: 5.6 nM
- EC50 [5]: > 10000 nM
- concentration at 0.5 h [6]: 2510 nM
- concentration at 0.5 h [7]: 5270 nM
- CL/F [8]: 144 mL/min/kg
- concentration at 0.5 h [9]: 2210 nM
- concentration at 0.5 h [10]: 5540 nM

SMILES: CCCC(C)COc1ccc([C@H](CO)NC(=O)C(CO)c2ccccc2)cc1 (mixture of isomers)
- EC50 [5]: 810 nM

SMILES: O=C(N[C@@H](CO)c1ccc2ccccc2c1)[C@H]1C[C@H]1c1ccccc1
- EC50 [5]: > 110000 nM

SMILES: O=C(N[C@@H](CO)c1ccc2ccccc2c1)[C@@H]1C[C@@H]1c1ccccc1
- EC50 [5]: > 81000 nM

SMILES: Cc1ccc(-c2ccc([C@H](CO)NC(=O)[C@H]3C[C@@H]3c3cccs3)cc2)cc1
- Kp at 0.5 h [11]: 2
- fraction unbound [12]: 0.025
- half-life [13]: 36 min
- clearance [14]: 47 mL/min/kg
- EC50 [5]: 93 nM
- %max ([5]; HEK293): 90%
- fraction unbound [15]: 0.036
- Vd [16]: 2.17 L/kg
- EC50 [17]: 240 nM
- %max ([17]; HEK293): 90%
- concentration at 0.5 h [18]: 290 nM
- concentration at 0.5 h [19]: 695 nM

SMILES: CCCC(C)COc1ccc([C@H](CN2CCOCC2)NC(=O)[C@@H](C)c2ccccc2)cc1 (mixture of isomers)
- EC50 [5]: 91 nM

SMILES: CCCC(C)COc1ccc([C@H](CO)NC(=O)N(CC)Cc2ccccc2)cc1 (mixture of isomers)
- EC50 [5]: 1500 nM

SMILES: CCCC(C)COc1ccc([C@H](CO)NC(=O)Cc2ccccc2)cc1 (mixture of isomers)
- EC50 [5]: > 10000 nM

SMILES: O=C(NC(CO)c1ccc2ccccc2c1)[C@@H]1C[C@H]1c1ccccc1 (mixture of isomers)
- EC50 [5]: 6000 nM

SMILES: CCCC(C)COc1ccc([C@H](CO)NC(=O)c2ccccc2)cc1 (mixture of isomers)
- EC50 [5]: 170 nM

SMILES: O=C(N[C@@H](CO)c1ccc2ccccc2c1)[C@@H]1C[C@H]1c1ccccc1
- EC50 [5]: > 270000 nM

SMILES: CCCC(C)COc1ccc([C@H](CO)NC(=O)[C@H]2C[C@@H]2c2ccccc2)cc1 (mixture of isomers)
- EC50 [5]: 730 nM

SMILES: O=C(N[C@@H](CO)c1ccc2ccccc2c1)[C@H]1C[C@@H]1c1ccccc1
- EC50 [5]: 2500 nM

SMILES: CCCC(C)COc1ccc([C@H](CN2CCCC2)NC(=O)[C@@H](C)c2ccccc2)cc1 (mixture of isomers)
- EC50 [5]: 570 nM

SMILES: CCCC(C)COc1ccc([C@H](CN2CCN(C)CC2)NC(=O)[C@@H](C)c2ccccc2)cc1 (mixture of isomers)
- EC50 [5]: 90 nM

SMILES: C[C@H](C(=O)N[C@@H](CO)c1ccc(OCC2CCO2)cc1)c1ccccc1 (stereo partly drawn)
- EC50 [5]: > 10000 nM

SMILES: CC(C)COc1ccc([C@H](CO)NC(=O)[C@H]2C[C@@H]2c2cccs2)cc1
- fraction unbound [1]: 0.05
- concentration at 0.5 h [4]: 24 nM
- concentration at 0.5 h [20]: 10500 nM
- EC50 [5]: 690 nM
- concentration at 0.5 h [6]: 6850 nM
- CL/F [8]: 176 mL/min/kg
- concentration at 0.5 h [9]: 3240 nM

SMILES: CCCC(C)COc1ccc([C@H](CN(C)C)NC(=O)[C@@H](C)c2ccccc2)cc1 (mixture of isomers)
- EC50 [5]: 29 nM

Source: ChEMBL document CHEMBL3399915, “Design, synthesis, and evaluation of phenylglycinols and phenyl amines as agonists of GPR88” (Bioorg Med Chem Lett, 2015)
